Measurements published in ChEMBL document CHEMBL1149959, “Synthesis of potent -D-glucocerebrosidase inhibitors: N-alkyl--valienamines” (Bioorg Med Chem Lett, 1996).
pIC50: −log10 of the molar value.

The compounds below were run against T1, Lysosomal acid glucosylceramidase (Mus musculus, UniProt P17439).
T1 sequence (P17439 whole entry): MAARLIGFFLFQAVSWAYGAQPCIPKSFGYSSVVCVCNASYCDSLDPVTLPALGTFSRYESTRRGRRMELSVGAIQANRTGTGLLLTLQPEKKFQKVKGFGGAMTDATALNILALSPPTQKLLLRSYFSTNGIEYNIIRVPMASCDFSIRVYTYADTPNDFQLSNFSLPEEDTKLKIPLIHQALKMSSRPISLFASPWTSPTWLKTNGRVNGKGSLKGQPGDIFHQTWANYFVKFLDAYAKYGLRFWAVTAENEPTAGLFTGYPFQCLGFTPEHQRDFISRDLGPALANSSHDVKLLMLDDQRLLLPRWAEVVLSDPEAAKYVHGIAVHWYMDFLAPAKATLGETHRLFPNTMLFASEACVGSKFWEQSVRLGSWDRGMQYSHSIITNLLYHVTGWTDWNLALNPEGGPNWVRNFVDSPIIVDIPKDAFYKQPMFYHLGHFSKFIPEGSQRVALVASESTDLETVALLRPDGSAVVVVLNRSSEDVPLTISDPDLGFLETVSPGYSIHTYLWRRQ
In the case of `N[C@H]1C=C(CO)C(O)[C@H](O)C1O` (single isomer, unassigned) [VALIENAMINE], the IC50 was “Not Active”.

Each compound was assayed against T1, Lysosomal acid glucosylceramidase (assay: Compound was tested for inhibitory activity against beta-glucocerebrosidase.).
For `CCCCCCCCCCCCCCN[C@@H]1C=C(CO)[C@H](O)C(O)[C@@H]1O` (some centres undefined), the pIC50 was 6.92.
In the case of `OC1C2O[C@H]2[C@@H](O)C(O)[C@@H]1O` (some centres undefined), the pIC50 was 5.96.
For `CCCCCCCCCCN[C@@H]1C=C(CO)[C@H](O)C(O)[C@@H]1O` (some centres undefined), the pIC50 was 7.15.
`CCCCCCN[C@@H]1C=C(CO)[C@H](O)C(O)[C@@H]1O` (some centres undefined) gave a pIC50 of 6.52.
`CCCCN[C@@H]1C=C(CO)[C@H](O)C(O)[C@@H]1O` (some centres undefined) was tested, and the pIC50 was 4.96.
`CCCCCCCCCCCCC/C=C/[C@@H](O)[C@H](CN[C@@H]1C=C(CO)[C@H](O)C(O)[C@@H]1O)NC(=O)CCCCCCCCCCCCCCC` (some centres undefined) was tested, and the pIC50 was 6.52.
`CCCCCCCCN[C@@H]1C=C(CO)[C@H](O)C(O)[C@@H]1O` (some centres undefined) gave a pIC50 of 7.52.
Work on `CCCCCCCCCCCCCCCCCCN[C@@H]1C=C(CO)[C@H](O)C(O)[C@@H]1O` (some centres undefined) yielded a pIC50 of 6.52.
